Data on 20 molecules can be found in patent US20080153873A1, “DIHYDROBENZOFURANYL DERIVATIVES AND METHODS OF THEIR USE” (Wyeth, priority 2006, published 2008).

SMILES strings stand for the structures. Where a name gives a salt, the structure may show the parent alone.

The target in one assay is T1, human hNET (Homo sapiens, UniProt P23975).
T1 construct: expressed in transfected cells; host or cells: MDCK-Net6 cells (MDCK, stably transfected)
T1 sequence (P23975 whole entry): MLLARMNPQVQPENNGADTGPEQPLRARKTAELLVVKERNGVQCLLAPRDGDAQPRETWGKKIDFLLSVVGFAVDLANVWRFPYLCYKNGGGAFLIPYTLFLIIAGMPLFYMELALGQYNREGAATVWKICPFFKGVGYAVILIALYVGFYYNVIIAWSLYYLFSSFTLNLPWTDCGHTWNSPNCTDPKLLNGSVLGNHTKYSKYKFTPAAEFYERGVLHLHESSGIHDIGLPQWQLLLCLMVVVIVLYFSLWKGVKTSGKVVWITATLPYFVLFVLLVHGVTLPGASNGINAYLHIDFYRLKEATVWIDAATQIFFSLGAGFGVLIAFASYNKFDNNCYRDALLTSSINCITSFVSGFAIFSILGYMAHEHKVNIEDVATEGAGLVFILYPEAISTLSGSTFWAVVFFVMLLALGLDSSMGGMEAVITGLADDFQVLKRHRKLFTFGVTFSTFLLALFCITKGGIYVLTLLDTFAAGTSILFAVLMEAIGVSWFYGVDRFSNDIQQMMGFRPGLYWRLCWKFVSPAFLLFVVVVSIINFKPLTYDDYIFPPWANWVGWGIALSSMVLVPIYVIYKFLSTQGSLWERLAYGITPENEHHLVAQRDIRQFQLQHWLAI
Briefly: Functional Norepinephrine (NE) Uptake Assay in MDCK-Net6 cells. It counts as cell-based. The settings on record: % inhibition of NE uptake @ 6 μM; MDCK-Net6 cells; read-out: hNET IC50 (nM) (% Inhibition). On the procedure:
MDCK-Net6 cells, stably transfected with human hNET (Pacholczyk, T., R. D. Blakely, and S. G. Amara, Nature, 1991, 350(6316): p. 350-4) were cultured in growth medium containing high glucose DMEM (Gibco, Cat. No. 11995), 10% FBS (dialyzed, heat-inactivated, US Bio-Technologies, Lot FBD1129HI) and 500 μg/ml G418 (Gibco, Cat. No. 10131). Cells were plated at 300,000 T75 flask and cells were split twice weekly.
On day 1, cells were plated at 3,000 cells/well in growth medium and maintained in a cell incubator (37° C., 5% CO2). On day 2, growth medium was replaced with 200 μl of assay buffer (25 mM HEPES; 120 mM NaCl; 5 mM KCl; 2.5 mM CaCl2; 1.2 mM MgSO4; 2 mg/ml glucose (pH 7.4, 37° C.)) containing 0.2 mg/ml ascorbic acid and 1 μM pargyline. For screening, 25 μl of compound in 4% DMSO was added directly to each well and the plate is incubated for 5 minutes at 37° C.
To initiate the norepinephrine reuptake, 16 nM (final concentration) of ^3H norepinephrine (specific activity; 40-80 Ci/mmol) in assay buffer was delivered in 25 μl aliquots to each well, and the plates were incubated for 5 minutes at 37° C. The reaction was aspirated from the plate and the cells washed with 250 μl of 50 mM Tris Buffer (4° C.). The plates were left to dry for 1 hour. The cells were lysed using 0.25 M NaOH solution then placed on a shake table and vigorously shaken for 10 minutes. After cell lysis, 100 μl of Microscint 20 (PerkinElmer; #87-051101) were added to the plates and the plates were sealed with film tape and replaced on the shake table for a minimum of 10 minutes. The plates were counted in a TopCount counter (PerkinElmer).
For screening single point determinations, each compound plate contains at least 3 control wells (maximum NE reuptake determinant) and 3 non-specific wells determined by adding 20 μM of desipramine (minimum NE reuptake determinant). Determination of active compounds are calculated using a Microsoft Excel spread sheet applying the following formula:
% inhibition=[1−((mean cpm test compound wells−mean cpm non-specific wells)/(mean cpm control wells−mean cpm non-specific wells))]×100
For IC50 determination, raw cpm values were generated in a data file from the TopCount counter. The data was organized using Microsoft Excel and transferred into PRIZM graphing and statistical program, which calculates the estimated IC50 value. Calculation of IC50 values were made using non-linear regression analysis with a sigmoidal dose response with variable slope. The statistical program used wells containing ^3H norepinephrine only as the maximal NE reuptake determinant and wells containing ^3H norepinephrine plus 20 μM desipramine as the minimal NE reuptake determinant (non-specific determinant). Estimation of the IC50 value was completed on a log scale and the line was fit between the maximal and minimal NE reuptake values.
On to `CNC[C@@H]1Oc2ccccc2[C@H]1N1CC(C)(C)c2cccc(F)c21` [Example 5, 1-[(2S,3R)-3-(7-fluoro-3,3-dimethyl-2,3-dihydro-1H-indol-1-yl)-2,3-dihydro-1-benzofuran-2-yl]-N-methylmethanamine hydrochloride], for which the inhibition (commonly the share of the control response that was lost under treatment) at 6 µM was determined as 63%.
With `CCNC[C@@H]1Oc2ccccc2[C@H]1N1CC(C)(C)c2cccc(F)c21` [Example 8, N-{[(2S,3R)-3-(7-fluoro-3,3-dimethyl-2,3-dihydro-1H-indol-1-yl)-2,3-dihydro-1-benzofuran-2-yl]methyl}ethanamine hydrochloride], the inhibition at 6 µM was 42%.
The same measure, in the same setting: to `CNCC1Oc2ccccc2C1n1ccc2ccccc21` (racemic) [Example 11, (+/−)-1-[3-(1H-indol-1-yl)-2,3-dihydro-1-benzofuran-2-yl]-N-methyl methanamine hydrochloride] belongs 42%; to `CC(C)NC[C@@H]1Oc2ccccc2[C@H]1N1CC(C)(C)c2cccc(F)c21` [Example 6, N-{[(2S,3R)-3-(7-fluoro-3,3-dimethyl-2,3-dihydro-1H-indol-1-yl)-2,3-dihydro-1-benzofuran-2-yl]methyl}propan-2-amine hydrochloride], 30%.
Still for that read-out and setting: to `CNCC1Oc2cc(F)ccc2C1N1C(=O)C(C)(C)c2ccccc21` (stereo not drawn) [Example 14, 1-{6-fluoro-2-[(methylamino)methyl]-2,3-dihydro-1-benzofuran-3-yl}-3,3-dimethyl-1,3-dihydro-2H-indol-2-one hydrochloride] belongs 54%; to `CN(C)C[C@@H]1Oc2ccccc2[C@H]1N1CC(C)(C)c2cccc(F)c21` [Example 7, 1-[(2S,3R)-3-(7-fluoro-3,3-dimethyl-2,3-dihydro-1H-indol-1-yl)-2,3-dihydro-1-benzofuran-2-yl]-N,N-dimethylmethanamine hydrochloride], 37%.

The assay is the same for the next values; noted with them: MDCK-Net6 cells stably transfected with hNET; 3H norepinephrine uptake, 16 nM.
As for `CNC[C@H]1Oc2ccccc2[C@@H]1N1CC(C)(C)c2cccc(F)c21` [Example 1, 1-[(2R,3S)-3-(7-fluoro-3,3-dimethyl-2,3-dihydro-1H-indol-1-yl)-2,3-dihydro-1-benzofuran-2-yl]-N-methylmethanamine hydrochloride], the IC50 (commonly the concentration that inhibits the measured activity by half) is 27.2 nM.
The same measure, in the same setting: to `CNCC1Oc2cc(F)ccc2C1n1c(=O)n(C(C)C)c2cccc(F)c21` (racemic) [Example 18, 4-Fluoro-3-{(2SR,3RS)-6-fluoro-2-[(methylamino)methyl]-2,3-dihydro-1-benzofuran-3-yl}-1-isopropyl-1,3-dihydro-2H-benzimidazol-2-one hydrochloride] belongs 3800 nM; to `CNCC1Oc2ccccc2C1N1C(=O)C(C)(C)c2ccccc21` (stereo not drawn) [Example 15, 3,3-dimethyl-1-{2-[(methylamino)methyl]-2,3-dihydro-1-benzofuran-3-yl}-1,3-dihydro-2H-indol-2-one hydrochloride], 1140 nM; to `CC1(C)CN([C@H]2c3ccccc3O[C@@H]2CN)c2c(F)cccc21` [Example 4, 1-[(2R,3S)-3-(7-fluoro-3,3-dimethyl-2,3-dihydro-1H-indol-1-yl)-2,3-dihydro-1-benzofuran-2-yl]methanamine hydrochloride], 95 nM.
As for `CCOc1ccccc1O[C@H]1c2ccccc2O[C@@H]1CNC` [Example 9, 1-[(2R,3S)-3-(2-ethoxyphenoxy)-2,3-dihydro-1-benzofuran-2-yl]-N-methylmethanamine hydrochloride], the IC50 was determined as 846 nM.
Still for that read-out and setting: to `CNCC1Oc2ccccc2C1N1CCCc2ccccc21` (stereo not drawn) [Example 16, 1-[3-(3,4-dihydroquinolin-1(2H)-yl)-2,3-dihydro-1-benzofuran-2-yl]-N-methylmethanamine hydrochloride] belongs 811 nM.
In the case of `CNC[C@H]1Oc2cc(F)ccc2[C@@H]1n1c(=O)n(C(C)C)c2cccc(F)c21` (single isomer, unassigned) [Example 20, hydrochloride], it took 1750 nM to reach half-maximal inhibition (IC50).
Turning to `CNCC1Oc2ccccc2C1N(C)c1ccccc1` (stereo not drawn) [Example 17, N-methyl-2-[(methylamino)methyl]-N-phenyl-2,3-dihydro-1-benzofuran-3-amine hydrochloride], the IC50 turned out to be 3550 nM.
Turning to `CNC[C@H]1Oc2ccc(F)cc2[C@@H]1N1CC(C)(C)c2cccc(F)c21` [Example 13, 1-[(2R,3S)-5-fluoro-3-(7-fluoro-3,3-dimethyl-2,3-dihydro-1H-indol-1-yl)-2,3-dihydro-1-benzofuran-2-yl]-N-methylmethanamine hydrochloride], the IC50 was determined as 88.5 nM.
Molecule `CNCC1Oc2ccccc2C1n1ccc2ccccc21` (racemic) [Example 11, (+/−)-1-[3-(1H-indol-1-yl)-2,3-dihydro-1-benzofuran-2-yl]-N-methyl methanamine hydrochloride] had an IC50 of 301 nM.
`CNC[C@H]1Oc2ccccc2[C@@H]1N1CC(C)(C)c2cc(F)ccc21` [Example 2, 1-[(2R,3S)-3-(5-fluoro-3,3-dimethyl-2,3-dihydro-1H-indol-1-yl)-2,3-dihydro-1-benzofuran-2-yl]-N-methylmethanamine hydrochloride] came in with an IC50 of 343 nM.
On the same count and under the same terms, to `CNCC1Oc2ccccc2C1N1CCc2ccccc21` (racemic) [Example 10, (+/−)-1-[3-(2,3-dihydro-1H-indol-1-yl)-2,3-dihydro-1-benzofuran-2-yl]-N-methylmethanamine hydrochloride] belongs 244 nM; to `CN(C)C[C@H]1Oc2ccccc2[C@@H]1N1CC(C)(C)c2cccc(F)c21` [Example 3, 1-[(2R,3S)-3-(7-fluoro-3,3-dimethyl-2,3-dihydro-1H-indol-1-yl)-2,3-dihydro-1-benzofuran-2-yl]-N,N-dimethylmethanamine hydrochloride], 319 nM.
`CNC[C@@H]1Oc2cc(F)ccc2[C@H]1n1c(=O)n(C(C)C)c2cccc(F)c21` (single isomer, unassigned) [Example 19, hydrochloride] came in with an IC50 of 12400 nM.
Turning to `CNC[C@@H]1Oc2c(F)cccc2[C@H]1N1C(=O)C(C)(C)c2cccc(F)c21` [Example 12, 7-fluoro-1-{(2S,3R)-7-fluoro-2-[(methylamino)methyl]-2,3-dihydro-1-benzofuran-3-yl}-3,3-dimethyl-1,3-dihydro-2H-indol-2-one hydrochloride], 1030 nM corresponded to half-maximal inhibition (IC50).
